Measurements from PMC10855388, “Small-Molecule-Directed Endogenous Regeneration of Visual Function in a Mammalian Retinal Degeneration Model” (International Journal of Molecular Sciences, 2024).

Assays:
Assay in all cases: KinaseProfiler in vitro kinase panel ([…] human kinases), single concentration […]
Assay type in all cases: biochemical
ROCK-I = target: T1, ROCK-I (Homo sapiens, UniProt Q13464)
T1 construct: gene ROCK1

PKG1α = target: T2, PKG1α (Homo sapiens, UniProt Q13976)
T2 construct: gene PRKG1
T2 sequence (Q13976 2-671): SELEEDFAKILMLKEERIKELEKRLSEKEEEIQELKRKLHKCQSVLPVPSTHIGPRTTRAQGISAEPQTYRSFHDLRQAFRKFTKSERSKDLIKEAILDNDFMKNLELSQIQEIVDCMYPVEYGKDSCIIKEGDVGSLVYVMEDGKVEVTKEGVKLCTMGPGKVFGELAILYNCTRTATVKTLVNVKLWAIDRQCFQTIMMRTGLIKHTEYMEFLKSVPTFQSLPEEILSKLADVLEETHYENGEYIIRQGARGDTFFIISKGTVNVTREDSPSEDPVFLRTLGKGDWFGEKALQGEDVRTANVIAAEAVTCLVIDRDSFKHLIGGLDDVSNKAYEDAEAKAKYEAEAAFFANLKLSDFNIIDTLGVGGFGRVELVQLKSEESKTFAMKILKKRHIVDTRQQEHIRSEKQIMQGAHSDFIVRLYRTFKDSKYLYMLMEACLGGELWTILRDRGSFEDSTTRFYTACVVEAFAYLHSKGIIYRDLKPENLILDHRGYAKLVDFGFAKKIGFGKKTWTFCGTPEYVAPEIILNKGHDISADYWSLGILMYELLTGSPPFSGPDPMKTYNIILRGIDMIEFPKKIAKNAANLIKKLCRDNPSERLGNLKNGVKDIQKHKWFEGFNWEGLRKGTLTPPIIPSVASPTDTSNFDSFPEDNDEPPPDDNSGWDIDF

PKA = target: T3, PKA (Homo sapiens, UniProt P17612)
T3 construct: gene PRKACA

p70S6K = target: T4, p70S6K (Homo sapiens, UniProt P23443)
T4 construct: gene RPS6KB1
T4 sequence (P23443 whole entry): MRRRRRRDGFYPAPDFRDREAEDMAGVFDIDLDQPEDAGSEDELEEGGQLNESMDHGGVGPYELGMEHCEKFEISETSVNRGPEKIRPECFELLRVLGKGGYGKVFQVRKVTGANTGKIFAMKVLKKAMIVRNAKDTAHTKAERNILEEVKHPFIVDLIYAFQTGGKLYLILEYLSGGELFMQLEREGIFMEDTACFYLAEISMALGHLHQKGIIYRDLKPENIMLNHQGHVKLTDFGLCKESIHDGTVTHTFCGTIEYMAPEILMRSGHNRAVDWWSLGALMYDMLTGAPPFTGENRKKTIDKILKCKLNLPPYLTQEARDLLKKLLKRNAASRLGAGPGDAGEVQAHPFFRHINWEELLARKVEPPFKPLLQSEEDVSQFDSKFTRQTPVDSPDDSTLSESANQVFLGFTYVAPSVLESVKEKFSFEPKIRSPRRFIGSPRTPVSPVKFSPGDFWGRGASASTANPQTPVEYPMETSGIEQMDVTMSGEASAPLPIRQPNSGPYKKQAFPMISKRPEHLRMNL

Measured: inhibition at 5 µM

T1 sequence (Q13464 2-1354): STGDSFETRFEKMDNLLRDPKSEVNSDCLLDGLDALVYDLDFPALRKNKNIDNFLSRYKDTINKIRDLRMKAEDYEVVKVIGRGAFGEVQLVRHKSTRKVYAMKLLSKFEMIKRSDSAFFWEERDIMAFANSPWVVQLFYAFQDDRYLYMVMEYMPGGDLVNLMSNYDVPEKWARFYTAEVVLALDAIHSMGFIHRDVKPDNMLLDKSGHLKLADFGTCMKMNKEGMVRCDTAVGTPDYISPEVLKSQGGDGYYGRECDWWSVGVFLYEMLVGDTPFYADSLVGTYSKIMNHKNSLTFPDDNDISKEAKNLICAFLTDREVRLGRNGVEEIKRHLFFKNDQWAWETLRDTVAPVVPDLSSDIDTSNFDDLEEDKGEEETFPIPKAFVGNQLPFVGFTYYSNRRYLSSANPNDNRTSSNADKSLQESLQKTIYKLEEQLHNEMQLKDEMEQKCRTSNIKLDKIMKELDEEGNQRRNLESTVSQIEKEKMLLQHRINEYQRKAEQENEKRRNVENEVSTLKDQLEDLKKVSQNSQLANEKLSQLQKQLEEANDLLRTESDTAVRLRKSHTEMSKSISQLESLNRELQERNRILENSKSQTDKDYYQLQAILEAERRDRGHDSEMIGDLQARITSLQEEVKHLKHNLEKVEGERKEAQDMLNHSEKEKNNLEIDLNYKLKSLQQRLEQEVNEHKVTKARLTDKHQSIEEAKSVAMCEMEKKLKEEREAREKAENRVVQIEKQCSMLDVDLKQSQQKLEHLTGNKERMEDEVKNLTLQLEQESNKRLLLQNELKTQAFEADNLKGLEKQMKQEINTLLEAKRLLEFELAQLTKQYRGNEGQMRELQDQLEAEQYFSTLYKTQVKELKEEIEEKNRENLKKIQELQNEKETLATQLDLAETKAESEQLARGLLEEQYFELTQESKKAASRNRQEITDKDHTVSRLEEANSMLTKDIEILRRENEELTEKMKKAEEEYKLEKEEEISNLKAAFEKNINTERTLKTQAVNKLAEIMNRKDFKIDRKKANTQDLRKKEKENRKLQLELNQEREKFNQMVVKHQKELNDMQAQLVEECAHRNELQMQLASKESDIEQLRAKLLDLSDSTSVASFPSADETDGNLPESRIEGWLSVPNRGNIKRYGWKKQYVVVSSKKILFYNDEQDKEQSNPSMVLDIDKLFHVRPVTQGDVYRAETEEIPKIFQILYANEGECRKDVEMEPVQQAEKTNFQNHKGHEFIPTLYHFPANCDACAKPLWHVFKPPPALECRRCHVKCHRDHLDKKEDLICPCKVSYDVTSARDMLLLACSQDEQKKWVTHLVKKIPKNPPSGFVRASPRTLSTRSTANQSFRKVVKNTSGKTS

COc1cc(NC(=O)C2COc3ccccc3C2)ccc1-c1cnco1 (stereo not shown) [CompA, CompoundA]
> 75%: all assays above
